The test deals with T1, human ETA receptors (Homo sapiens, UniProt P25101).
T1 construct: endogenous in cells; host or cells: TE 671 cells (ATCC HTB 139)
T1 sequence (P25101 21-427): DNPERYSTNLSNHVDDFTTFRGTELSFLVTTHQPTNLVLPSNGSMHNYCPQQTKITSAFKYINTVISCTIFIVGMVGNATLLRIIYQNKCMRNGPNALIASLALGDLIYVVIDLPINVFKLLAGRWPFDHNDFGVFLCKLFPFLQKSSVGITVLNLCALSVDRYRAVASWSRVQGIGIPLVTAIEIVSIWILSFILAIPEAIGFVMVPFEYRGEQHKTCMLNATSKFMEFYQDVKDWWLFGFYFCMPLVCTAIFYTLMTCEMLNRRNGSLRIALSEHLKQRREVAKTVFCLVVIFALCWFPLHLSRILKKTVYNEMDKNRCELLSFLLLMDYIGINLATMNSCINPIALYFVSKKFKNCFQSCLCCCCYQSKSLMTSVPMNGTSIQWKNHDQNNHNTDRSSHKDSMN
Put plainly: Binding Test #1: inhibition of 125I-ET-1 binding to ETA receptors (TE 671 cell membranes). To be noted: for IC50: read-out: ETA. The text has this: Compounds that are potential endothelin antagonists are identified by testing their ability to compete with ^125I-labeled ET-1 for binding to human ETA receptors or ETB receptors present on isolated cell membranes. The effectiveness of the test compound as an antagonist or agonist of the biological tissue response of endothelin can also be assessed by measuring the effect on endothelin induced contraction of isolated rat thoracic aortic rings. The ability of the compounds to act as antagonists or agonists for ETB receptors can be assess by testing the ability of the compounds are to inhibit endothelin-1 induced prostacyclin release from cultured bovine aortic endothelial cells.
A. Endothelin Binding Inhibition—Binding Test #1: Inhibition of Binding to ETA Receptors
TE 671 cells (ATCC Accession No. HTB 139) express ETA receptors. These cells were grown to confluence in T-175 flasks. Cells from multiple flasks were collected by scraping, pooled and centrifuged for 10 min at 190×g. The cells were resuspended in phosphate buffered saline (PBS) containing 10 mM EDTA using a Tenbroeck homogenizer. The suspension was centrifuged at 4° C. at 57,800×g for 15 min, the pellet was resuspended in 5 ml of buffer A (5 mM HEPES buffer, pH 7.4 containing aprotinin (100 KIU/ml)) and then frozen and thawed once. 5 ml of Buffer B (5 mM HEPES Buffer, pH 7.4 containing 10 mM MnCl2 and 0.001% deoxyribonuclease Type 1) was added, the suspension mixed by inversion and then incubated at 37° C. for 30 minutes. The mixture was centrifuged at 57,800×g as described above, the pellet washed twice with buffer A and then resuspended in buffer C (30 mM HEPES buffer, pH 7.4 containing aprotinin (100 KIU/ml) to give a final protein concentration of 2 mg/ml and stored at −70° C. until use.
The membrane suspension was diluted with binding buffer (30 mM HEPES buffer, pH 7.4 containing 150 mM NaCl, 5mM MgCl2, 0.5% Bacitracin) to a concentration of 8 μg/50 μl. ^125I-endothelin-1 (3,000 cpm, […]) was added to 50 μL of either: (A) endothelin-1 (for non specific binding) to give a final concentration 80 nM); (B) binding buffer (for total binding); or (C) a test compound (final concentration 1 nM to 100 μM). The membrane suspension (50 μL), containing up to 8 μg of membrane protein, was added to each of (A), (B), or (C). Mixtures were shaken, and incubated at 4° C. for 16-18 hours, and then centrifuged at […] for 25 min at 2,500×g. Alternatively, the incubation was conducted at 24° C. […] This, must be kept in mind when comparing IC50 concentrations among compounds provided herein.
The supernatant, containing unbound radioactivity, was decanted and the pellet counted on a Genesys multiwell gamma counter. The degree of inhibition of binding (D) was calculated according to the following equation: [formula]
Each test was generally performed in triplicate.

Where [1] appears, read: Table 3, † incubation at 24° C.
Setting [2] is: Table 1, † incubation at 24° C.

We go through eleven compounds from patent US6683103B2, “Sulfonamides for treatment of endothelin-mediated disorders” (Texas Biotechnology Corporation, priority 1997, dated 2004).

Where two headings read alike, the source gives them in different places.

For the compound `Cc1cc(C)c(OC(N)=O)c(C)c1NC(=O)c1sccc1S(=O)(=O)Nc1onc(C)c1Cl` [3-(((3-(((4-chloro-3-methyl-5-isoxazolyl)amino)sulfonyl)-2-thienyl)carbonyl)amino)-2,4,6-trimethyiphenyl carbamate], the IC50 under setting [1] worked out at 0.00545 µM.
In the case of `COC(=O)Oc1c(C)cc(C)c(NC(=O)c2sccc2S(=O)(=O)Nc2onc(C)c2Cl)c1C` [3-(((3-(((4-chloro-3-methyl-5-isoxazolyl)amino)sulfonyl)-2-thienyl)carbonyl)amino)-2,4,6-trimethylphenyl methyl carbonate], the IC50 under setting [1] came out at 0.00075 µM.
In the case of `CCC(=O)c1cc(C)cc(C)c1NC(=O)c1sccc1S(=O)(=O)Nc1onc(C)c1Cl` [3-(((4-chloro-3-methyl-5-isoxazolyl)amino)sulfonyl)-N-(2,4-dimethyl-6-propionylphenyl)-2-thiophenecarboxamide], under “Table 3”, the ETA/ETB selectivity is listed as 21000^∥. For the same compound, under setting [1], the IC50 stood at 0.00061 µM.
For `Cc1cc(C)c(NC(=O)c2sccc2S(=O)(=O)Nc2onc(C)c2Cl)c(C(=O)C2CCCCC2)c1` [3-(((4-chloro-3-methyl-5-isoxazolyl)amino)sulfonyl)-N-(2-(cyclohexylcarbonyl)-4,6-dimethylphenyl)-2-thiophenecarboxamide] the same measures were 1300^∥ and 0.0149 µM.
With `CC(=O)c1cc(C)cc(C)c1NC(=O)c1sc(C)cc1S(=O)(=O)Nc1onc(C)c1Cl` [N-(2-acetyl-4,6-dimethylphenyl)-3-(((4-chloro-3-methyl-5-isoxazolyl)amino)sulfonyl)-5-methyl-2-thiophenecarboxamide], where the note is “Table 3”, the ETA/ETB selectivity is recorded as 9000^∥. For the same compound, the IC50 under setting [1] came to 0.00294 µM.
In the same order, the values of `Cc1cc(C)c(NC(=O)c2sccc2S(=O)(=O)Nc2onc(C)c2Cl)c(C(=O)c2ccccc2)c1` [N-(2-benzoyl-4,6-dimethylphenyl)-3-(((4-chloro-3-methyl-5-isoxazolyl)amino)sulfonyl)-2-thiophenecarboxamide] are 6000^∥ and 0.00426 µM.
Regarding `COC(=O)c1sccc1S(=O)(=O)Nc1onc(C)c1C` [N-(3,4-dimethyl-5-isoxazolyl)-2-(carbomethoxy)thiophene-3-sulfonamide], the IC50 (Table 1, incubation at 4° C.) came to 0.367 µM.
Still for that read-out and setting: with `Cc1noc(NS(=O)(=O)c2ccco2)c1C` [N-(3,4-dimethyl-5-isoxazolyl)furan-2-sulfonamide] the figure was 3.13 µM; with `Cc1noc(NS(=O)(=O)c2cc(S(=O)(=O)c3ccccc3)cs2)c1Br` [N-(4-Bromo-3-methyl-5-isoxazolyl)-4-benzenesulfonylthiophene-2-sulfonamide], 0.383 µM.
In the case of `Cc1ccc(OC(=O)c2sccc2S(=O)(=O)Nc2onc(C)c2Br)cc1` [N-(4-bromo-3-methyl-5-isoxazolyl)-2-[(4-methylphenoxy)carbonyl]thiophene-3-sulfonamide], the IC50 under setting [2] turned out to be 122 µM.
For `COC(=O)c1cc(OC)c(OC)cc1NC(=O)c1sccc1S(=O)(=O)Nc1onc(C)c1Cl` [N-(4-chloro-3-methyl-5-isoxazolyl)2-{[4,5-dimethoxy-2,4,5-di] [N-(4-chloro-3-methyl-5-isoxazolyl)2-{[4,5-dimethoxy-2,4,5-dimethoxy-2-methoxycarbonyl)phenyl]phenylaminocarbonyl}thiophene-3-sulfonamide], the IC50 under setting [2] stood at 3.8 µM.
